Assays:
[1] = test system: M1 macrophages and M2 macrophages differentiated from mouse bone marrow cells; test: Subtype identification by staining and flow cytometry of M1 and M2 macrophages differentiated from mouse bone marrow cells; assay type: cell-based, Balb/c mouse; details: for Resolution ratio R: M1 vs M2 macrophages from mouse bone marrow cells; for Evaluation of macrophage subtype identification: class based on resolution R; for Peak position of M1 macrophage: mouse bone marrow-derived M1 macrophages; for Peak position of M1 macrophage / Peak position of M2 macrophage: channel listed per compound; for Peak position of M2 macrophage: mouse bone marrow-derived M2 macrophages
Method in brief: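 Balb/c mouse bone marrow cells were differentiated to macrophages with 50 ng/mL M-CSF over two 3–4-day periods, then polarized for 3 days to M1 (interferon-γ plus polyliposaccharide) or M2 (IL-4). Live cells (aqua dye-negative) were analysed by flow cytometry; resolution R = |FM1−FM2|/(WM1+WM2) from histogram peak positions and widths indexed subtype discrimination.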

[2] = test system: M1 macrophages and M2 macrophages differentiated from THP-1 cells; test: Identification of macrophage subtypes differentiated from human cell line THP-1; assay type: cell-based; details: THP-1 derived M1 and M2
Description: The fluorescent signals derived from the compounds (3), (4), (6), (7), (9), (11) to (13), (15), (17), (19) to (26), (28), (30) to (33), (35), (36), (38), (42) to (45), (48) to (62), (65), (67), (74) to (76), (82), (83) and (85) and the comparative compounds (1) and (2) were measured in channels suitable to the respective compounds. Histograms were prepared by plotting fluorescence intensities obtained in the respective channels on the abscissa and plotting the numbers of cells at each fluorescence intensity on the ordinate. A difference between a fluorescence intensity (FM1) at a peak top of the histogram of the M1 macrophage and a fluorescence intensity (FM2) at a peak top of the histogram of the M2 macrophage is divided by a sum of a peak width (WM1) of the histogram of the M1 macrophage and a peak width (WM2) of the histogram of the M2 macrophage, so as to obtain a resolution R, which was used as an index of the identification ability for a subtype (see the following expression (1)). Resolution R=|FM1−FM2|/(WM1+WM2) Expression (1)
Based on the thus obtained values of the resolution R, the identification abilities for the subtypes of the compounds (3), (4), (6), (7), (9), (11) to (13), (15), (17), (19) to (26), (28), (30) to (33), (35), (36), (38), (42) to (45), (48) to (62), (65), (67), (74) to (76), (82), (83) and (85) and the comparative compounds (1) and (2) were evaluated as any of A to C according to the following criteria, and if the resolution R was 0.15 or more, the compound was determined to be good in the subtype identification.
The subtypes were identified by using the compound (1) in the same manner as in Example 1 except that the macrophage subtypes differentiated from the mouse bone marrow cells were changed to macrophage subtypes differentiated from a cell line established from human acute monocytic leukemia.
The culture of subtypes was performed with reference to NPL 10. Specifically, THP-1 cells purchased from JCRB Cell Bank of National Institute of Biomedical Innovation, that is, a cell line established from human acute monocytic leukemia, were subcultured several times, and the resultant cells were dispersed to a concentration of 5.0×10^5/mL in an RPMI1640 containing 10% FBS and 1% P/S, and 5.0×10^6 cells were seeded in a 100 mm dish. The monocytes were differentiated into macrophages by incubating the resultant in the presence of 5% CO2 at 37° C. for 2 days with 500 ng of PMA added thereto. After exchanging the medium, by adding 200 ng of interferon-γ and 1 μg of polyliposaccharide (both manufactured by Pepro Tech) to the medium, the cells were differentiated to the subtype M1. Besides, by adding 200 ng of IL-4 and IL-13, the cells were differentiated to the subtype M2. After incubation performed in the presence of 5% CO2 at 37° C. for 24 hours, the resultant was rinsed with PBS, and PBS containing 0.25% trypsin and 1 mM EDTA (ethylenediaminetetraacetic acid) was used for collecting, from the dish, the macrophages having been differentiated to the subtypes M1 and M2.
Specifically, fluorescent signals derived from the compounds (1) (3) (4) (12) and (15) were measured by using the channels which are appropriate for each of the compounds and the identification abilities for the subtypes of the compounds were evaluated based on the values of the resolution R.

[3] = test system: M1 macrophages and M2 macrophages differentiated from RAW264.7 cells; test: Identification of macrophage subtypes differentiated from mouse cell line RAW264.7; assay type: cell-based; details: RAW264.7 derived M1 and M2
Description: The subtypes were identified by using the compound (1) in the same manner as in Example 1 except that the macrophage subtypes differentiated from the mouse bone marrow cells were changed to macrophage subtypes differentiated from a cell line established from mouse monocytic leukemia.
The culture of subtypes was performed with reference to NPL 9. Specifically, RAW264.7 cells purchased from American Type Culture Collection, that is, a cell line established from mouse monocytic leukemia, were subcultured several times, and the resultant cells were dispersed to a concentration of 3.3×10^4/mL in a D-MEM containing 10% FBS, 1% P/S and 1% MEM-NEAA, and 3.3×10^5 cells were seeded in a 100 mm dish. The cells were grown by incubation performed in the presence of 5% CO2 at 37° C. After 2 to 4 days, it was confirmed that an area of about to 70% of the bottom of the dish had been covered by the cells, the medium was then exchanged, and by adding 200 ng of interferon-γ and 1 μg of polyliposaccharide (both manufactured by Pepro Tech) to the medium, the cells were differentiated to the subtype M1. Besides, by adding 100 ng of IL-4, the cells were differentiated to the subtype M2. […]
A histogram was prepared by plotting fluorescence intensity obtained in the FITC channel on the abscissa and plotting the number of cells at each fluorescence intensity on the ordinate, which is shown in FIG. 9.

[4] = test system: M1 macrophages and M2 macrophages; test: Analysis of export inhibition of the identification agent by a test substance (FTC, MK-571, DIDS); assay type: cell-based, mouse
Description: Besides, Fumitremorgin C (manufactured by Sigma-Aldrich, hereinafter referred to as FTC) was added thereto, as a substance for inhibiting export of the compound (1) having been imported into cells, to a concentration of 10 μM, and the resultant was incubated at 37° C. for 30 minutes. Thereafter, the tube was centrifuged at 180 G for 10 minutes to remove the supernatant, and then, 1 mL of a HBSS buffer containing the FTC in a concentration of 10 μM was added thereto to suspend the cells, and the resultant was further incubated at 37° C. for 30 minutes.
Furthermore, each tube was centrifuged at 180 G for 10 minutes to remove the supernatant, the cells were suspended by adding the dye aqua for identifying dead cells thereto, and the resultant was incubated at 4° C. for 10 minutes. Thereafter, the tube was centrifuged at 180 G for 10 minutes to remove the supernatant, and then, the cells were suspended in a FACS buffer and analyzed by using a FACSCanto (trademark) II flow cytometry apparatus manufactured by BD.
The analysis was performed on a cell population showing a low signal for the aqua, so as to analyze a cell population from which dead cells were eliminated.
The analysis was performed in the same manner as in Example 57 except that the FTC was not added.
Thereafter, the tube was centrifuged at 180 G for 10 minutes to remove the supernatant, and then, 1 mL of a HBSS buffer containing the MK-571 in a concentration of 10 μM was added thereto to suspend the cells, and the resultant was further incubated at 37° C. for 30 minutes.
The analysis was performed in the same manner as in Example 79 except that the MK-571 was not added. […] The degree of the enhancement of the peak intensity caused by adding the MK-571 was evaluated by calculating the resolution R described above by using peak intensities in histograms prepared with and without adding the MK-571.
Thereafter, the tube was centrifuged at 180 G for 10 minutes to remove the supernatant, and then, 1 mL of a HBSS buffer containing the DIDS in a concentration of 10 μM was added thereto to suspend the cells, and the resultant was further incubated at 37° C. for 30 minutes.

[5] = test system: mixture of the M1 macrophages and the M2 macrophages; test: Sorting of subtypes from a mixture of M1 and M2 macrophages with an FACS apparatus; assay type: cell-based, mouse; details: compound 1 μM
[6] = general formula (10) dyes (Table 8)
[7] = general formula (11) dyes (Table 9)

Q: For `CCN(CC)c1ccc2cc(-c3nc4ccccc4s3)c(=O)oc2c1` [compound (129)], which “Resolution ratio R” value [1, 6] is on record?
A: 0.709

Q: And the “Evaluation of macrophage subtype identification” value [1, 6]?
A: A (The compound is very good in the subtype identification (namely, the resolution R is 0.5 or more))

Q: What about the “Peak position of M1 macrophage” value [1, 6] of the same compound?
A: 31.0

Q: And the “Peak position of M2 macrophage” value [1, 6]?
A: 13.0

Q: And the “subtype more strongly stained” value [2]?
A: the M1 macrophages were stained more strongly by the compound (129) than the M2 macrophages

Q: And the “subtype more strongly stained” value [3]?
A: the M1 macrophages were stained more strongly by the compound (129) than the M2 macrophages

Q: Which “enhancement of the fluorescence intensity caused by inhibition of export of the compound (1)” value ([4]; FTC 10 μM, compound (1) 1 μM) does the source give for `COc1ccc2c3c([nH]c2c1)[C@H](C=C(C)C)N1C(=O)[C@@H]2CCCN2C(=O)[C@@H]1C3` [FTC, Fumitremorgin C] here?
A: observed merely in the M2 macrophages

Q: With `CN(C)C(=O)CCSC(SCCC(=O)O)c1cccc(/C=C/c2ccc3ccc(Cl)cc3n2)c1` (stereo not shown) [MK-571] as the compound, how does the “degree of the enhancement of the peak intensity (resolution R with and without MK-571)” value (from here on “degree … (resolution R with and without MK-571)”) ([4]; M1 macrophages, MK-571 10 μM, compound (113) 1 μM) read?
A: 0.406

Q: What about the “degree … (resolution R with and without MK-571)” value ([4]; M1 macrophages, MK-571 10 μM, compound (120) 1 μM) of the same compound?
A: 0.739

Q: What about the “degree … (resolution R with and without MK-571)” value ([4]; M2 macrophages, MK-571 10 μM, compound (113) 1 μM) of the same compound?
A: 0.438

Q: And the “degree … (resolution R with and without MK-571)” value ([4]; M2 macrophages, MK-571 10 μM, compound (120) 1 μM)?
A: 0.730

Q: What about the “enhancement of the fluorescence intensity caused by inhibition of export of the compound (113)” value ([4]; MK-571 10 μM, compound (113) 1 μM) of the same compound?
A: observed in both the M1 macrophages and the M2 macrophages

Q: What about the “enhancement of the fluorescence intensity caused by inhibition of export of the compound (120)” value ([4]; MK-571 10 μM, compound (120) 1 μM) of the same compound?
A: observed in both the M1 macrophages and the M2 macrophages

Q: What does the source list for `CCC1=C(C)C2=C(C)c3c(C)c(CC)c(C)n3[B-](F)(F)[N+]2=C1C` [compound (139)]?
A: sorting of identified M1 and M2 macrophages ([5]; FACS apparatus): could be each sorted with an FACS apparatus; subtype more strongly stained ([5]; mixed M1 and M2 macrophages): staining the M1 macrophages more strongly than the M2 macrophages; Resolution ratio R [1, 7]: 1.023; Evaluation of macrophage subtype identification [1, 7]: A (The compound is very good in the subtype identification (namely, the resolution R is 0.5 or more)); Peak position of M1 macrophage [1, 7]: 220; Peak position of M2 macrophage [1, 7]: 47.8; subtype more strongly stained ([1]; two compounds used in combination, each 1 μM): the M1 macrophages show higher fluorescence intensity in the FITC channel than the M2 macrophages; subtype more strongly stained [2]: the M1 macrophages were stained more strongly by the compound (139) than the M2 macrophages

Q: Which “enhancement of the fluorescence intensity caused by inhibition of export of the compound (139)” value ([4]; DIDS 10 μM, compound (139) 1 μM) does the source give for `O=S(=O)(O)c1cc(N=C=S)ccc1C=Cc1ccc(N=C=S)cc1S(=O)(=O)O` [DIDS, 4,4′-diisothiocyanatostilbene-2,2′-disulfonic acid] here?
A: observed merely in the M1 macrophages

— US10041937B2, “Macrophage identification agent, and identification method, sorting method, evaluation method, screening method and kit using the macrophage identifier agent” (CANON KABUSHIKI KAISHA, priority 2013, dated 2018)
